Reference: patent US10172910B2, “Method of preventing or reducing the incidence of acute urinary retention” (Nymox Corporation, priority 2016, dated 2019)
Marks after values point to notes of the source that are not given here. No end group written: not given here.

What was measured:
Assay type in all cases: in vivo, human
Patients with BPH [1] = assay: Example 5: acute urinary retention, follow-up up to 6 years, SEQ ID NO. 66 followed by oral medications or second injection vs vehicle
Description: Patients with BPH were administered an intraprostatic injection under double-blind conditions by a urologist in an office setting under ultrasound guidance of either a) SEQ ID NO. 66 (Ile-Asp-Gln-Gln-Val-Leu-Ser-Arg-Ile-Lys-Leu-Glu-Ile-Lys-Arg-Cys-Leu), in phosphate buffered saline pH 7.2 (“PBS”), followed by conventional oral BPH medications used to treat BPH including alpha blockers such as tamsulosin, terazosin, doxazosin, or 5-alpha reductase inhibitors such as finasteride, dutasteride, or phosphodiesterase type 5 inhibitors (PDE5 inhibitors) such as tadalafil. Patients were followed for up to 6 years with regular physical examinations, laboratory tests, and evaluations of symptoms; b) SEQ ID NO. 66 in phosphate buffered saline pH 7.2 followed by a second injection of SEQ ID NO. 66 2.5 mg one month to 2 years later; or c) PBS vehicle alone. […] 66 followed by conventional medication or by another injection of SEQ ID NO.

Patients with BPH [2] = assay: Example One: incidence of acute urinary retention after intraprostatic injection, double-blind, BPH patients; conditions: patients with BPH who received intraprostatic SEQ ID NO: 66 2.5 mg at least once (initial or subsequent treatment); after 2 years; followed 1 to 6 years; p < .05 vs control
Excerpt: Patients with BPH were given an intraprostatic injection of either a) SEQ ID NO. 66 (Ile-Asp-Gln-Gln-Val-Leu-Ser-Arg-Ile-Lys-Leu-Glu-Ile-Lys-Arg-Cys-Leu) in phosphate buffered saline pH 7.2 (“PBS”) or b) PBS alone, under double-blind conditions by a urologist in an office setting under ultrasound guidance. Patients were followed for 1 to 6 years with regular physical examinations, laboratory tests, and evaluations of symptoms. Both groups of subjects were subsequently given either 1) no further treatment; 2) conventional oral medications such as alpha blockers or 5-alpha reductase inhibitors; 3) an intraprostatic injection of SEQ ID NO. 66 2.5 mg or 4) more than one of the preceding. The overall incidence of acute urinary retention in all patients who received intraprostatic SEQ ID NO. […] 66 under similar conditions.

Patients with BPH [3] = assay: Example Two: acute urinary retention after vehicle injection followed by oral medications or SEQ ID NO. 66; conditions: PBS vehicle injection followed by intraprostatic injection of SEQ ID NO: 66; followed 1 to 6 years
Excerpt: Patients with BPH were given an intraprostatic injection of PBS pH 7.2 vehicle alone, under double-blind conditions by a urologist in an office setting under ultrasound guidance. Patients were followed for 1 to 6 years with regular physical examinations, laboratory tests, and evaluations of symptoms, and treatments. […] 66 (Ile-Asp-Gln-Gln-Val-Leu-Ser-Arg-Ile-Lys-Leu-Glu-Ile-Lys-Arg-Cys-Leu).

Patients with BPH [4] = assay: Example 4: acute urinary retention within 24 months, SEQ ID NO. 66 followed by oral medications or second injection vs vehicle
Description: Patients with BPH were given an intraprostatic injection under double-blind conditions by a urologist in an office setting under ultrasound guidance of either a) SEQ ID NO. 66 (Ile-Asp-Gln-Gln-Val-Leu-Ser-Arg-Ile-Lys-Leu-Glu-Ile-Lys-Arg-Cys-Leu), in phosphate buffered saline pH 7.2 (“PBS”); or b) SEQ ID NO. 66 in phosphate buffered saline pH 7.2 followed by a second injection of SEQ ID NO. 66 2.5 mg one month to 2 years later; or c) PBS vehicle alone followed by conventional oral BPH medications used to treat BPH including alpha blockers such as tamsulosin, terazosin, doxazosin, or 5-alpha reductase inhibitors such as finasteride, dutasteride, or phosphodiesterase type 5 inhibitors (PDE5 inhibitors) such as tadalafil. Patients were followed for 2 years with regular physical examinations, laboratory tests, and evaluations of symptoms. […] 66 followed by conventional medication or by another injection of SEQ ID NO. 66 there were >75% fewer instances of acute urinary retention compared to subjects who were administered only a control injection of vehicle alone.

Patients with BPH [5] = assay: Example 3: acute urinary retention after vehicle or SEQ ID NO. 66 followed by oral BPH medications; conditions: SEQ ID NO: 66 2.5 mg intraprostatic followed by oral medications; followed 1 to 6 years; p < .02
Description: In this example, patients with BPH were given an intraprostatic injection of PBS pH 7.2 vehicle alone or an injection of SEQ ID NO. 66 (Ile-Asp-Gln-Gln-Val-Leu-Ser-Arg-Ile-Lys-Leu-Glu-Ile-Lys-Arg-Cys-Leu), 2.5 mg in PBS, under double-blind conditions by a urologist in an office setting under ultrasound guidance. Patients were followed for 1 to 6 years with regular physical examinations, laboratory tests, and evaluations of symptoms, and treatments. […] 66 and who subsequently received conventional oral medications used to treat BPH such as the classes of approved medications listed above.

IDQQVLSRIKLEIKRCL [SEQ ID NO: 66]
fewer instances of acute urinary retention compared to vehicle alone (Patients with BPH [1]; SEQ ID NO. 66 followed by conventional medication or another injection of SEQ ID NO. 66, up to 6 years): > 75%
Incidence of acute urinary retention (Patients with BPH [1]; SEQ ID NO: 66 intraprostatic followed by oral medications or another injection of SEQ ID NO: 66, followed up to 6 years, p < .04): 2%*
Incidence of acute urinary retention (Patients with BPH [2]): 1.4%*
Incidence of acute urinary retention (Patients with BPH [3]): 2.1%
fewer instances of acute urinary retention compared to vehicle alone (Patients with BPH [4]; SEQ ID NO. 66 followed by conventional medication or another injection of SEQ ID NO. 66, 2 years): > 75%
Incidence of acute urinary retention (<24 months) (Patients with BPH [4]; SEQ ID NO: 66 intraprostatic followed by oral medications or another injection of SEQ ID NO: 66, followed 2 years, p < .03): 0.76%*
Incidence of acute urinary retention (Patients with BPH [5]): 0%*
